In ChEMBL document CHEMBL5143699, “Identification of novel indole derivatives as highly potent AMPK activators with anti-diabetic profiles” (Bioorg Med Chem Lett, 2022):
Calls of active or inactive are those of the source. No cut-off for these calls is given here.

Assays:
[1] = target: AMPK alpha2/beta2/gamma1 (Homo sapiens) (UniProt P54646+O43741+P54619); assay: Activation of human recombinant AMPK A2/B2/G1 assessed as increase in AMPK phosphorylation using FL-peptide as substrate incubated for 120 mins by EZ reader method; type: protein-complex assay
Chain of AMPK alpha2/beta2/gamma1 (Homo sapiens) (P54619 whole entry, looked up, one chain of several): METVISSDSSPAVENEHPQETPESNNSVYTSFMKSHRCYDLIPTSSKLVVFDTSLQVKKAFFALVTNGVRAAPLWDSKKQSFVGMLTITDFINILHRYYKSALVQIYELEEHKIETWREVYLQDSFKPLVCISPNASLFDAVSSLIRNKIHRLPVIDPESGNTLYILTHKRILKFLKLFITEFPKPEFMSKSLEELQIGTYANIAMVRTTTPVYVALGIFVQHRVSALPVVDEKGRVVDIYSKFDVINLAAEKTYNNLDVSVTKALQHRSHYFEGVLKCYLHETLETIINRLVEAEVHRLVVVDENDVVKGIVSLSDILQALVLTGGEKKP
Chain of AMPK alpha2/beta2/gamma1 (Homo sapiens) (P54646 whole entry, looked up, one chain of several): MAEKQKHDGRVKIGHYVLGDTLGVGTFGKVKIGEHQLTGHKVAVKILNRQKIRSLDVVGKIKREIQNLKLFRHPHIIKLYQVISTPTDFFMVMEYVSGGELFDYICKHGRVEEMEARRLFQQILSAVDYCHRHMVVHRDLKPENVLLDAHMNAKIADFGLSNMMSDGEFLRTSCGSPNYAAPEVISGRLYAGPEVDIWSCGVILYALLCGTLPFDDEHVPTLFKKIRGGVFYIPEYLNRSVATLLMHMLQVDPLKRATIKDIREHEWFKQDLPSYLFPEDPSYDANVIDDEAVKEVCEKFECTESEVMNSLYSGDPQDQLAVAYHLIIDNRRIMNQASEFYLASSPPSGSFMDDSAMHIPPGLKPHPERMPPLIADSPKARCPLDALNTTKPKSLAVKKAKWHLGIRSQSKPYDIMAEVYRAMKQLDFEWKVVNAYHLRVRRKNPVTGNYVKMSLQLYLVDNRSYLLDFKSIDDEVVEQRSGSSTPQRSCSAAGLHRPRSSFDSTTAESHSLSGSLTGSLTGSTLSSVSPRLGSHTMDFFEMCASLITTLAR

Cytochrome P450 2C19 = Cytochrome P450 2C19 (Homo sapiens, UniProt P33261); assay: Inhibition of CYP2C19 in human liver microsomes using mephenytoin as substrate; type: ADME, Microsome
Chain of Cytochrome P450 2C19 (P33261 whole entry): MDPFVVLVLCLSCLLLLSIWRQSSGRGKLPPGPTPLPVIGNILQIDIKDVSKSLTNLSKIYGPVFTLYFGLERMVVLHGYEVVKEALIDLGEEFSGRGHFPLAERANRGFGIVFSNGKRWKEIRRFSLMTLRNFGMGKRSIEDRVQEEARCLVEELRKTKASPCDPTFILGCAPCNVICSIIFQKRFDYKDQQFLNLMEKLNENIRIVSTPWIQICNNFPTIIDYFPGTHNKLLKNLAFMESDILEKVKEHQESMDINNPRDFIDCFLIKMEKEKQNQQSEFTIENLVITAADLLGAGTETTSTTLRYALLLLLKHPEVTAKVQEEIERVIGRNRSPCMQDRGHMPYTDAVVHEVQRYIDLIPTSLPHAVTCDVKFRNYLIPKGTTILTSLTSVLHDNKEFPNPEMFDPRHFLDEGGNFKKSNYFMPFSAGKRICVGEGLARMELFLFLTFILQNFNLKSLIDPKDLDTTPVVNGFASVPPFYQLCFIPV

[2] = Protein binding in serum (unknown origin) assessed as unbound fraction by equilibrium dialysis assay; type: ADME, cell-free
[3] = target: T1, 5'-AMP-activated protein kinase subunit beta-1 (Rattus norvegicus, UniProt P80386); assay: Activation of rat liver AMPK-beta1 using SAMS peptide as substrate incubated for 10 mins by microplate reader assay; type: tissue-based
T1 sequence (P80386 whole entry): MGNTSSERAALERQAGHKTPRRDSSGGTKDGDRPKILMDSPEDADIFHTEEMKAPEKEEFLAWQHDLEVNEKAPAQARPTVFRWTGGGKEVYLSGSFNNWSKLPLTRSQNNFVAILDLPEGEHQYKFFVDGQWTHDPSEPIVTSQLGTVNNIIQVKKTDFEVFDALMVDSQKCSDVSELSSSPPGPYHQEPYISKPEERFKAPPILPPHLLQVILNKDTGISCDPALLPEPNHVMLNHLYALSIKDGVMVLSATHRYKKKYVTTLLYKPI

[4] = target: T2, 5'-AMP-activated protein kinase subunit beta-2 (Homo sapiens, UniProt O43741); assay: Activation of recombinant AMPK-beta2 (unknown origin) assessed as increase in AMPK phosphorylation by DELFIA fluorescence assay
T2 sequence (O43741 whole entry): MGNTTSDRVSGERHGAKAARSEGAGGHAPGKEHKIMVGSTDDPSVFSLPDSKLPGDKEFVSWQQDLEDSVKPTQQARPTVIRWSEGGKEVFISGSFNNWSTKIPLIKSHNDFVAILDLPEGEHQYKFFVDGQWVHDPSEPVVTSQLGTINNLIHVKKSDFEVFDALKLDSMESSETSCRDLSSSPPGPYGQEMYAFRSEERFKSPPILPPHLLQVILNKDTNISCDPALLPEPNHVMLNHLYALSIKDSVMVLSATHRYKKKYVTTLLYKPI

[5] = Metabolic stability in rat liver microsomes assessed as compound remaining measured after 30 mins; type: ADME, Microsome; details: read-out: Stability
[6] = AUC in rat at 1 mg/kg, po; type: ADME, organism-based; design: dose 1 mg/kg, route po; details: in vivo
[7] = Metabolic stability in human liver microsomes assessed as compound remaining measured after 30 mins; type: ADME, Microsome; details: read-out: Stability
[8] = […] of the compound in rat muscle at 1 mg/kg, po or 0.5 mg/kg, iv; type: ADME, organism-based
[9] = […] of the compound in rat liver at 1 mg/kg, po or 0.5 mg/kg, iv; type: ADME, organism-based
[10] = Cmax in rat at 1 mg/kg, po or 0.5 mg/kg, iv; type: ADME, organism-based; design: dose 1 mg/kg, route po; details: in vivo
Cytochrome P450 1A2 = target: T3, Cytochrome P450 1A2 (Homo sapiens, UniProt P05177); assay: Inhibition of CYP1A2 in human liver microsomes using 7-ethoxyresorufin as substrate; type: ADME, Microsome
T3 sequence (P05177 whole entry): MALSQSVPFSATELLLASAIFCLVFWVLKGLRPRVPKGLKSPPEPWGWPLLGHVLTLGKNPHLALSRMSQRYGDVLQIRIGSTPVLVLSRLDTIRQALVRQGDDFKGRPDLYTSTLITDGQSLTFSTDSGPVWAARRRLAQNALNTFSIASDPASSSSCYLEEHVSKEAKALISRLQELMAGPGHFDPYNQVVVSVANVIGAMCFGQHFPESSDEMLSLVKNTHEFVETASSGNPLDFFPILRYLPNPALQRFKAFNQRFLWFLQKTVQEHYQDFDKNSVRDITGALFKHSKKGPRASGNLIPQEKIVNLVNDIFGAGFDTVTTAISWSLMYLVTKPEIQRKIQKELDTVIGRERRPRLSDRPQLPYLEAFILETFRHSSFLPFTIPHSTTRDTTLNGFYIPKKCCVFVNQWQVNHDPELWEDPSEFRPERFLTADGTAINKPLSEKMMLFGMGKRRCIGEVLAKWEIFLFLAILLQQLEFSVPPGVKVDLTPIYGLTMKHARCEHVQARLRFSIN

Cytochrome P450 3A4 = Cytochrome P450 3A4 (Homo sapiens, UniProt P08684); assay: Inhibition of CYP3A4 in human liver microsomes using terfenedine as substrate; type: ADME, Microsome
Chain of Cytochrome P450 3A4 (P08684 whole entry): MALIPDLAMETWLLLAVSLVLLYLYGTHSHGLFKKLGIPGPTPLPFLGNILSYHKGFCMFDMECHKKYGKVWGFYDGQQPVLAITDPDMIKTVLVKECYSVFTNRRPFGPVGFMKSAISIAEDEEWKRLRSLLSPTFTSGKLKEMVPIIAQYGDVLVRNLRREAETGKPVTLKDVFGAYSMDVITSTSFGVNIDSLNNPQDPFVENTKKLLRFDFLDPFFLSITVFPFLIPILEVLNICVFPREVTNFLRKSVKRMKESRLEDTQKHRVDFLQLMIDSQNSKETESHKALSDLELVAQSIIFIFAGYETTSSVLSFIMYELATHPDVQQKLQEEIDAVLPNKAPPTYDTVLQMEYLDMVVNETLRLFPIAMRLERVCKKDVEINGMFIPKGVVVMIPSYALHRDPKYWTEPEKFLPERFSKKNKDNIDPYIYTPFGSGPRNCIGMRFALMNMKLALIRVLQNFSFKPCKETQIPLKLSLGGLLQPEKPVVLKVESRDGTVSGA

Cytochrome P450 2C9 = Cytochrome P450 2C9 (Homo sapiens, UniProt P11712); assay: Inhibition of CYP2C9 in human liver microsomes using tolbutamide as substrate; type: ADME, Microsome
Chain of Cytochrome P450 2C9 (P11712 whole entry): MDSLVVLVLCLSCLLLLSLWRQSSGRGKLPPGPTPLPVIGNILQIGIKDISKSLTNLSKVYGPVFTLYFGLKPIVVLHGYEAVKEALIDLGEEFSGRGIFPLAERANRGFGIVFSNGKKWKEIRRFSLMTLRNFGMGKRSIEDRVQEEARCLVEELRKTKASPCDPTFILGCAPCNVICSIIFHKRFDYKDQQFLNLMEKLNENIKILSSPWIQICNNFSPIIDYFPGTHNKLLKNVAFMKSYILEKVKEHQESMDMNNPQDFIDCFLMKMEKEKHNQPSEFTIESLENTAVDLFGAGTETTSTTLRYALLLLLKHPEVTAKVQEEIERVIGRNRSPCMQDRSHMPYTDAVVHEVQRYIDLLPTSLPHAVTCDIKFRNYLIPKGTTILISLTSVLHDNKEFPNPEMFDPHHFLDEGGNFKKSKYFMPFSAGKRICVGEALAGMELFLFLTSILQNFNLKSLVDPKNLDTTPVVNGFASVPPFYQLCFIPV

Cytochrome P450 2D6 = Cytochrome P450 2D6 (Homo sapiens, UniProt P10635); assay: Inhibition of CYP2D6 in human liver microsomes using dextromethorphan as substrate; type: ADME, Microsome
Chain of Cytochrome P450 2D6 (P10635 whole entry): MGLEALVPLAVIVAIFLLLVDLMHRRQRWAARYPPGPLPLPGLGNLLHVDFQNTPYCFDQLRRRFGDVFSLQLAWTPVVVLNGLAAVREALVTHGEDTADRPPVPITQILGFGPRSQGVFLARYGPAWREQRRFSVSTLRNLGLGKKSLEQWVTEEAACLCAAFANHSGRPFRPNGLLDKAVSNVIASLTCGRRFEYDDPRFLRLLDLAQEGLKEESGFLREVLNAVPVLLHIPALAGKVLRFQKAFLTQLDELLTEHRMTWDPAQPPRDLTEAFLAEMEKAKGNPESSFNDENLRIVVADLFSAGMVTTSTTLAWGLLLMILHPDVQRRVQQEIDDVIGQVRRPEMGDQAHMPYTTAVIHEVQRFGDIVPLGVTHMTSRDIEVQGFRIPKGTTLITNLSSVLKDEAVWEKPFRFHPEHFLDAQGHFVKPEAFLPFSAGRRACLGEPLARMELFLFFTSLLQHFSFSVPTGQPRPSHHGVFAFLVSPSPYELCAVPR

Mus musculus [11] = assay: Antidiabetic activity against po dosed type 2 diabetic KKAy mouse model assessed as acute glucose lowering effect measured for 1 to 6 hrs; type: functional, organism-based; details: time 1-6 hrs, DDE = dose-dependent effect
[12] = target: T4, 5'-AMP-activated protein kinase (Mus musculus) (UniProt Q5EG47+Q8BRK8+Q6PAM0+O54950+Q91WG5+Q9R078+Q8BGM7); assay: In vivo activation of AMPK in mouse liver assessed as increase in AMPKalpha phosphorylation level at 0.08 to 6.75 mg/kg,po by western blot method; type: functional, organism-based; details: dose 0.08-6.75 mg/kg, DDE = dose-dependent effect
Mus musculus [13] = assay: Antidiabetic activity against type 2 diabetic KKAy mouse model assessed as increase in Akt phosphorylation in skeletal muscle at 1.5 to 6 mg/kg,po bid measured on 25 to 26 days after insulin injection by ELISA; type: functional, organism-based; details: dose 1.5-6 mg/kg, time 25-26 day
Mus musculus [14] = assay: Antidiabetic activity against type 2 diabetic KKAy mouse model assessed as decrease in plasma glucose level administrated orally bid measured after 21 days of administration by automatic analyzer; type: functional, organism-based; details: route po, time 21.0 day, DDE = dose-dependent effect
Mus musculus [15] = assay: Antidiabetic activity against type 2 diabetic KKAy mouse model assessed as decrease in lipid accumulation in liver at 1.5 to 6 mg/kg,po bid measured on 25 to 26 days after insulin injection; type: functional, organism-based; details: dose 1.5-6 mg/kg, time 25-26 day
Mus musculus [16] = assay: Antidiabetic activity against type 2 diabetic KKAy mouse model assessed as decrease in HbA1c level administrated orally bid measured after 21 days of administration by automatic analyzer; type: functional, organism-based; details: route po, time 21.0 day, DDE = dose-dependent effect
[17] = target: T4, 5'-AMP-activated protein kinase (Mus musculus); assay: In vivo activation of AMPK in mouse skeletal muscle assessed as increase in ACC phosphorylation level at 0.08 to 6.75 mg/kg,po by ELISA; type: functional, organism-based; details: Skeletal muscle tissue, dose 0.08-6.75 mg/kg, DDE = dose-dependent effect

## N#Cc1c(O[C@@H]2CO[C@H]3[C@@H]2OC[C@H]3O)[nH]c2ccc(-c3ccc(N4CCOCC4)cc3)cc12
[1]; filed as activator
  EC150: 0.38 µM

## COCCOc1ccc(-c2ccc(-c3nc4cc(O[C@@H]5CO[C@H]6[C@@H]5OC[C@H]6O)[nH]c4cc3F)cc2)cn1
[1]; filed as activator
  EC150: 0.016 µM

## O=C(c1ccc(-c2ccc(-c3nc4cc(O[C@@H]5CO[C@H]6[C@@H]5OC[C@H]6O)[nH]c4cc3F)cc2)cc1)N1CCCC1
[1]; filed as activator
  EC150: 0.0018 µM
Cytochrome P450 2C19
  IC50: 7.4 µM
[2]
  fraction unbound: 0.01

## N#CC1=C(O)C2C(c3ccc(-c4ccccc4O)cc3)=CSC2NC1=O (stereo unspecified)
[3]
  EC50: 0.8 µM

## O=C1NC2SC(Cl)=C(c3ccc4c(c3O)CCCC4)C2C(O)=C1c1ccccc1 (stereo unspecified)
[4]
  EC50: 1.3 µM

## O=S1(=Nc2ccc(-c3ccc(-c4nc5cc(O[C@@H]6CO[C@H]7[C@@H]6OC[C@H]7O)[nH]c5cc4F)cc3)cc2)CCCC1
[5]
  remaining at 0.5 h: 86%
[1]; filed as activator
  EC150: 0.002 µM
[6]
  AUC: 251 ng·h/mL
[7]
  remaining at 0.5 h: 98%
Cytochrome P450 2C19
  IC50: 3.7 µM
[8]
  Kp: 0.67
[9]
  Kp: 3.34
[2]
  fraction unbound: 0.01
[10]
  Cmax: 43 ng/mL

## COCCOc1ccc(-c2ccc(-c3nc4cc(O[C@@H]5CO[C@H]6[C@@H]5OC[C@H]6O)[nH]c4cc3F)cc2)cc1
[1]; filed as activator
  EC150: 0.0073 µM
[2]
  fraction unbound: 0.002

## O[C@@H]1CO[C@H]2[C@@H]1OC[C@H]2Oc1cc2nc(-c3ccc(N4CCOCC4)cc3)c(F)cc2[nH]1
[1]; filed as activator
  EC150: 0.0053 µM

## CS(C)(=O)=Nc1ccc(-c2ccc(-c3nc4cc(O[C@@H]5CO[C@H]6[C@@H]5OC[C@H]6O)[nH]c4cc3F)cc2)nc1
[5]
  remaining at 0.5 h: 83%
[1]; filed as activator
  EC150: 0.0034 µM
[6]
  AUC: 111 ng·h/mL
[7]
  remaining at 0.5 h: > 99%
Cytochrome P450 2C19
  IC50: > 10 µM
Cytochrome P450 1A2
  IC50: > 10 µM
[8]
  Kp: 0.98
[9]
  Kp: 2.19
Cytochrome P450 3A4
  IC50: > 10 µM
[2]
  fraction unbound: 0.072
Cytochrome P450 2C9
  IC50: > 10 µM
Cytochrome P450 2D6
  IC50: > 10 µM
[10]
  Cmax: 44.8 ng/mL

## N#Cc1c(O[C@@H]2CO[C@H]3[C@@H]2OC[C@H]3O)[nH]c2cc(Cl)c(-c3ccc(N4CCOCC4)cc3)cc12
[1]; filed as activator
  EC150: 0.039 µM

## O[C@@H]1CO[C@H]2[C@@H]1OC[C@H]2Oc1cc2nc(-c3ccc(-c4ccccc4)cc3)c(F)cc2[nH]1
[1]; filed as activator
  EC150: 0.017 µM

## O[C@@H]1CO[C@H]2[C@@H]1OC[C@H]2Oc1cc2nc(-c3ccc(N4CCOCC4)cc3)c(Cl)cc2[nH]1
[1]; filed as activator
  EC150: 0.0019 µM

## Cn1c(O[C@@H]2CO[C@H]3[C@@H]2OC[C@H]3O)c(C#N)c2cc(-c3ccc(N4CCOCC4)cc3)c(Cl)cc21
[1]
  EC150: > 100 µM

## N#Cc1c(O[C@@H]2CO[C@H]3[C@@H]2OC[C@H]3O)[nH]c2cc(Cl)c(-c3ccc(N4CCOCC4)cc3)nc12
[1]; filed as activator
  EC150: 0.087 µM

## CS(C)(=O)=Nc1ccc(-c2ccc(-c3nc4cc(O[C@@H]5CO[C@H]6[C@@H]5OC[C@H]6O)[nH]c4cc3F)cc2)cc1
[5]
  remaining at 0.5 h: 91%
[1]; filed as activator
  EC150: 0.001 µM
[6]
  AUC: 288 ng·h/mL
[7]
  remaining at 0.5 h: > 99%
Cytochrome P450 2C19
  IC50: > 10 µM
Cytochrome P450 1A2
  IC50: > 10 µM
[8]
  Kp: 0.61
[9]
  Kp: 2.4
Cytochrome P450 3A4
  IC50: > 10 µM
[2]
  fraction unbound: 0.016
Cytochrome P450 2C9
  IC50: > 10 µM
Cytochrome P450 2D6
  IC50: > 10 µM
[10]
  Cmax: 68.7 ng/mL

## CS(C)(=O)=Nc1ccc(-c2ccc(-c3nc4cc(O[C@@H]5CO[C@H](CO)C5)[nH]c4cc3F)cc2)cc1
Mus musculus [11]
  Activity: Dde
[5]
  remaining at 0.5 h: 90%
[1]; filed as activator
  EC150: 0.001 µM
[6]
  AUC: 810 ng·h/mL
[7]
  remaining at 0.5 h: 94%
[12]
  Activity: Dde
[8]
  Kp: 0.63
Mus musculus [13]
  Activity: Active
[9]
  Kp: 7.14
Mus musculus [14]
  Activity: Dde
Mus musculus [15]
  Activity: Active
[2]
  fraction unbound: 0.011
[10]
  Cmax: 130 ng/mL
Mus musculus [16]
  Activity: Dde
[17]
  Activity: Dde

## COc1ccc(-c2ccc(-c3nc4cc(O[C@@H]5CO[C@H]6[C@@H]5OC[C@H]6O)[nH]c4cc3F)cc2)cc1
[1]; filed as activator
  EC150: 0.011 µM
